The text below walks through data of PMC12695667 (Nature, 2025).

Where “and” joins values, the source holds several entries; their conditions need not be identical. Identical values can stand only once.

Data set [1] deals with HaCat spheroids. Put plainly: Penetration in 3D-cultured multilayer HaCat spheroids (with or without endocytosis/exocytosis inhibitors). The class given is cell-based, human. To be noted: FITC-eq 1 μg ml^−1, 12 h. As for the experimental part: Multilayer cell spheroids were prepared using the hanging-drop method. […] The cell suspensions (25 μl) were dropped onto the lids of the cell culture plate to form uniform droplets, and 20 ml PBS was added to the plate to keep the droplets moist. The cells were incubated for 72 h and formed dense spheroids, which were transferred to an agarose-coated (1% (w/v) in PBS) 96-well plate with one spheroid per well and incubated for another 72 h to mature. […] The spheroids were washed with PBS and imaged using CLSM by z-stack tomoscan at 20 μm intervals from the bottom to the middle of the spheroids. The integration of FITC fluorescence density and linescan analysis were performed using Image J.
The HaCat spheroids were imaged and analysed as described above.
Spheroids were pre-treated with the indicated inhibitors for 4 h, followed by incubation with
The images are representative of n = 3 independent
experiments. b, Line-scan analysis of FITC fluorescence along a randomly selected line (yellow
(1 picture or pasted object on this page, not shown here)

For data set [2], the system named is STZ-induced diabetic minipigs. Put plainly: Blood glucose levels in STZ-induced diabetic minipigs (CGMS). The class given is in vivo, Guangxi Bama minipigs. To be noted: cream, 29 U kg^−1. As for the experimental part:
Guangxi Bama minipigs (aged 6 months; weight, 35–40 kg) were infused with STZ in freshly prepared disodium citrate buffer (75 mg ml^−1, pH 4.5) at a 150 mg per kg dose within 10 min and then maintained for recovery. The glucose levels were monitored using CGMS[15] (Dexcom G4 Platinum Continuous Glucose Monitor System, Dexcom). A BGL that is constantly higher than 250 mg dl^−1 indicates the successful establishment of the insulin-deficient diabetic minipig model.
The cream was topically applied onto the minipig abdominal skin at an insulin-equivalent dose of 40 mg or 10 mg (n = 3 for each group). The area with the cream was wrapped with plastic film. The BGLs of minipigs were continuously monitored using the CGMS. The diabetic minipigs were subjected to a fasting period of 12 h during the experimental procedures.

Data set [3] concerns phosphorylated IRβ/IGF1Rβ. Nature of the data set: Western blotting for insulin signalling, pIR/IR in skeletal muscle. The class given is in vivo, mouse. The following applies: STZ-diabetic mice, 1 h after s.c. 5 U/kg, western blot, individual mice, n = 3. Here is the method:
(§1) The mice were euthanized, and their skeletal muscle tissues were collected at 1 h after subcutaneous injection or 4 h after topical administration. Muscle samples were weighed and lysed in radioimmunoprecipitation buffer (Sigma-Aldrich) containing protease and phosphatase inhibitors (Thermo Fisher Scientific) and incubated on ice for 30 min. The lysates were centrifuged at 20,000g for 20 min at 4 °C and quantified using the BCA protein assay. […] The membranes were blocked in Tris-buffered saline with 0.5% Tween-20 (TBST) and 5% BSA for 1 h, followed by overnight incubation at 4 °C with primary antibodies against phosphorylated IRβ/IGF1Rβ (1:1,000), phosphorylated AKT-Thr308 (1:1,000) or GAPDH (1:5,000). After washing three times with TBST, the membranes were incubated with horseradish-peroxidase-conjugated secondary antibodies (HRP-labelled goat anti-rabbit IgG (H+L) or HRP-labelled Goat Anti-Mouse IgG (H+L)) at a dilution of 1:1,000 at room temperature for 1 h. Signal detection was performed using Immobilon Forte chemiluminescence substrate on the ChemiScope 3600 Mini Imaging System (Clinx Science Instruments). […]
(§2) control. The blots are representative of n = 3 independent experiments . b, Quantification of pIR and pAKT levels. […]

Data set [4] deals with STZ-induced diabetic mice. Put plainly: Intraperitoneal glucose tolerance test (IPGTT) in diabetic mice. The class given is in vivo, C57BL/6J mice. Details: Area under the IPGTT blood glucose curve: unit not given here. The following applies: for Area under the IPGTT blood glucose curve: Fig. 3h, 0-120 min; for BGL after intraperitoneal glucose administration (IPGTT): diabetic mice, topical 116 U kg^−1, glucose 1.5 g per kg i.p., hyperglycaemic state maintained. As for the experimental part:
BGLs were monitored over time. The diabetic mice were subjected to a fasting period of 3 h during the experimental procedures.

For data set [5], the system named is phosphorylated AKT-Thr308. Nature of the data set: Western blotting for insulin signalling, pAKT/AKT in skeletal muscle. The class given is in vivo, mouse. To be noted: STZ-diabetic mice, 1 h after s.c. 5 U/kg, individual mice, n = 3. Here is the method: as §1, §2
The test system of data set [6] is STZ-induced type 1 diabetic mice. Nature of the data set: Blood glucose levels in STZ-induced diabetic mice. To be noted: for Effect on BGLs, topical: topical 116 U kg^−1, 1.13 cm^2 dorsal skin. The class given is in vivo, C57BL/6J mice. Here is the method: Type 1 diabetic mice were established through intraperitoneal delivery of STZ (150 mg per kg in 10 mg ml^−1 disodium citrate buffer, pH 4.5) into healthy male C57BL/6J mice (aged 6–8 weeks, ~25 g). BGLs were monitored, and the mice with BGLs exceeding 300 mg dl^−1 were considered diabetic. Diabetic mice with fasting BGLs within the 300 to 600 mg dl^−1 range were selected for the experiments. BGLs were measured from tail-vein blood (around 3 μl) using a calibrated Sinocare glucose meter.
BGLs were measured at timed intervals. […] The diabetic mice were subjected to a fasting period of 12 h during the experimental procedures.

The test system of data set [7] is C57BL/6J mouse dorsal skin. The class given is in vivo, C57BL/6J mice. The text has this:
The dorsal skin of male C57BL/6J mice was exposed using depilatory cream and cleaned using PBS. A diffusing cell of 1.13 cm^2 was attached onto the dorsal skin. […] After timed topical administration, the mice were euthanized. The treated skin sites were washed and dissected. The entire skin samples were carefully washed three times with PBS, fixed with 4% paraformaldehyde (PFA) solution and sectioned into 10-μm-thick slices using a cryostat (UV800, Leica Microsystems). 4′,6-Diamidino-2′-phenylindole (DAPI) was used to stain and label the nuclei of skin tissues, and BODIPY was used to stain and localize subcutaneous fat deposits. […] The CLSM images were analysed using ImageJ.

Data set [8] deals with insulin receptor extracellular domains, His-tagged. Put plainly: SPR; Biacore X100, CM5 chip; anti-His antibody immobilised, His-tag-ECD-IR captured on it; insulin (9.75-156 nM) or OP-I (4.06-65.0 nM) injected in HEPES running buffer pH 7.4, single-cycle kinetics, 180 s binding and 300 s dissociation, flow 30 ul/min.

Turning to insulin^FITC: FITC-labelled insulin, the “Fluorescence of HaCat spheroids (CLSM)” value in data set [1] is “only weak fluorescence”.

Regarding “insulin: Human recombinant insulin (29 U mg^−1, I8830, Solarbio) [reference compound]”, in data set [2], the “Effect of topical treatment on minipig BGLs” value is listed as “almost no obvious changes in minipig BGLs”. Moreover, the PIR/IR in data set [3] is 0.1659 and 0.2361 and 0.221. Also, the “Area under the IPGTT blood glucose curve” value in data set [4] (replicate 1) was 55359; in data set [4] (replicate 2), 62309; in data set [4] (replicate 3), 59228; in data set [4] (replicate 4) it was 59472; in data set [4] (replicate 5) it was 58535. Besides, in data set [4], the “BGL after intraperitoneal glucose administration (IPGTT)” value is reported as “around 600 mg dl^−1”. The pAKT/AKT in data set [5] is 0.4051 and 0.6287 and 0.4302. For the same molecule, in data set [6] (s.c. 5 U kg^−1), the “BGL after rebound within 4 h” value is “around 400 mg dl^−1”. Moreover, the “BGL reached within 1 h” value in data set [6] (s.c. 5 U kg^−1, from around 400) is approximately 100 mg/dL. For the same molecule, the “Effect on BGLs, topical” value in data set [6] was “negligible effect on BGLs”.

Regarding `CCN1/C(=C/C=C/C=C/C2=[N+](CCCCCC(=O)O)c3ccc(S(=O)(=O)O)cc3C2(C)C)C(C)(C)c2cc(S(=O)(=O)[O-])ccc21` [free Cy5], the “Transdermal permeability of free label” value in data set [7] was “no detectable transdermal permeability”.

As to “OP-conjugated insulin (insulin conjugated to poly[2-(N-oxide-N,N-dimethylamino)ethyl methacrylate])”, in data set [8], the koff – broadly, the rate constant with which the complex falls apart – worked out at 0.0053 s⁻¹ and the kon (in general, the rate constant with which the complex forms) came out at 204000 M⁻¹ s⁻¹.

For the molecule PEG–I^FITC: FITC-labelled PEG–I, the “Fluorescence of HaCat spheroids (CLSM)” value in data set [1] is listed as “only weak fluorescence”.

As for “PEG–I: PEGylated insulin, PEG molecular mass of 5 kDa, used as a control”, the “Effect of topical treatment on minipig BGLs” value in data set [2] is listed as “almost no obvious changes in minipig BGLs”. Besides, the “Area under the IPGTT blood glucose curve” value was 63110 in data set [4] (replicate 1); 52617 in data set [4] (replicate 2); 56133 in data set [4] (replicate 3); 51381 in data set [4] (replicate 4); 44798 in data set [4] (replicate 5). Moreover, the “BGL after intraperitoneal glucose administration (IPGTT)” value in data set [4] was “around 600 mg dl^−1”. Also, the “Effect on BGLs, topical” value in data set [6] is “negligible effect on BGLs”.
